Assay results reported in ChEMBL document CHEMBL1149344, “Discovery of aminoquinazolines as potent, orally bioavailable inhibitors of Lck: synthesis, SAR, and in vivo anti-inflammatory activity” (J Med Chem, 2006).
pEC50, pIC50: −log10 of the molar value. Converted amounts (≈) assume the structure as drawn.

What was measured:
Mus musculus [1] = experiment: Unbound plasma concentration in po dosed BALB/c mouse; type: ADME, organism-based
[2] = molecular target: Tyrosine-protein kinase ITK/TSK (Homo sapiens, UniProt Q08881); experiment: Inhibition of Itk by HTRF kinase assay
[3] = Tmax in Sprague-Dawley rat at 5 mg/kg, po; type: ADME, organism-based; design: dose 5 mg/kg, route oral; settings: in vivo
[4] = molecular target: T1, Tyrosine-protein kinase JAK3 (Homo sapiens, UniProt P52333); experiment: Inhibition of Jak3 by HTRF kinase assay
T1 sequence (P52333 whole entry): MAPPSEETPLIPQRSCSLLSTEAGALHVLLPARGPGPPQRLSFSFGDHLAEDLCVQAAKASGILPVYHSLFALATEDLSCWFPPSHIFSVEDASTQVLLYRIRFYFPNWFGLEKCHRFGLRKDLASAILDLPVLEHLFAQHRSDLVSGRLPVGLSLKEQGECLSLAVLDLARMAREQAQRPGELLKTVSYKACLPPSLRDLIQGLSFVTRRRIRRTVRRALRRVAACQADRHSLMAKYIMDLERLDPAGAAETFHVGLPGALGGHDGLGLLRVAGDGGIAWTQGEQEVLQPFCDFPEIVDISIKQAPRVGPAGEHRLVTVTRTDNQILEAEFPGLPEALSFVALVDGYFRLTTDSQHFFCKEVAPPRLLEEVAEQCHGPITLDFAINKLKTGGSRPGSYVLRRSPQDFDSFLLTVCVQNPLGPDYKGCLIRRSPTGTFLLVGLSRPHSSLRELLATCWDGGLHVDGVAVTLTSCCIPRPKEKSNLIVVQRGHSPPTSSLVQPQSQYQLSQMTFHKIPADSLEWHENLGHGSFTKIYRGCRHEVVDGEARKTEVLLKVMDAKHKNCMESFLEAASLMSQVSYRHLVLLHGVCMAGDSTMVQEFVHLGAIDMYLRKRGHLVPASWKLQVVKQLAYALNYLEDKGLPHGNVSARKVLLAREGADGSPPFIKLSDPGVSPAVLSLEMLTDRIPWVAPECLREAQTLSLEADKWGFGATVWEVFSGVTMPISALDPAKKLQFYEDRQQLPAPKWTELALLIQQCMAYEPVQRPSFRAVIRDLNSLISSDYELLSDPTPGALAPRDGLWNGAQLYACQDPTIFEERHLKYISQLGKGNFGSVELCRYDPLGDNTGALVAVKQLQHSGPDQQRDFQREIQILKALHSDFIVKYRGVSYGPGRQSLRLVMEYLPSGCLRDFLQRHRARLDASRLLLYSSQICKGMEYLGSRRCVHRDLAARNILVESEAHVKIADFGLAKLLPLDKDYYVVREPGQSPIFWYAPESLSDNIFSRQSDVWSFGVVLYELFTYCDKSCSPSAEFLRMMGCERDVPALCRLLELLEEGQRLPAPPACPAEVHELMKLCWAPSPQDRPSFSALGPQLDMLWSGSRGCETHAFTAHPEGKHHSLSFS

[5] = Solubility in fasted state simulated intestinal fluid at pH 6.8; type: physicochemical; settings: read-out: Solubility
[6] = molecular target: Non-receptor tyrosine-protein kinase TYK2 (Homo sapiens, UniProt P29597); experiment: Inhibition of Tyk2 by HTRF kinase assay
Sequence of Non-receptor tyrosine-protein kinase TYK2 (P29597 whole entry): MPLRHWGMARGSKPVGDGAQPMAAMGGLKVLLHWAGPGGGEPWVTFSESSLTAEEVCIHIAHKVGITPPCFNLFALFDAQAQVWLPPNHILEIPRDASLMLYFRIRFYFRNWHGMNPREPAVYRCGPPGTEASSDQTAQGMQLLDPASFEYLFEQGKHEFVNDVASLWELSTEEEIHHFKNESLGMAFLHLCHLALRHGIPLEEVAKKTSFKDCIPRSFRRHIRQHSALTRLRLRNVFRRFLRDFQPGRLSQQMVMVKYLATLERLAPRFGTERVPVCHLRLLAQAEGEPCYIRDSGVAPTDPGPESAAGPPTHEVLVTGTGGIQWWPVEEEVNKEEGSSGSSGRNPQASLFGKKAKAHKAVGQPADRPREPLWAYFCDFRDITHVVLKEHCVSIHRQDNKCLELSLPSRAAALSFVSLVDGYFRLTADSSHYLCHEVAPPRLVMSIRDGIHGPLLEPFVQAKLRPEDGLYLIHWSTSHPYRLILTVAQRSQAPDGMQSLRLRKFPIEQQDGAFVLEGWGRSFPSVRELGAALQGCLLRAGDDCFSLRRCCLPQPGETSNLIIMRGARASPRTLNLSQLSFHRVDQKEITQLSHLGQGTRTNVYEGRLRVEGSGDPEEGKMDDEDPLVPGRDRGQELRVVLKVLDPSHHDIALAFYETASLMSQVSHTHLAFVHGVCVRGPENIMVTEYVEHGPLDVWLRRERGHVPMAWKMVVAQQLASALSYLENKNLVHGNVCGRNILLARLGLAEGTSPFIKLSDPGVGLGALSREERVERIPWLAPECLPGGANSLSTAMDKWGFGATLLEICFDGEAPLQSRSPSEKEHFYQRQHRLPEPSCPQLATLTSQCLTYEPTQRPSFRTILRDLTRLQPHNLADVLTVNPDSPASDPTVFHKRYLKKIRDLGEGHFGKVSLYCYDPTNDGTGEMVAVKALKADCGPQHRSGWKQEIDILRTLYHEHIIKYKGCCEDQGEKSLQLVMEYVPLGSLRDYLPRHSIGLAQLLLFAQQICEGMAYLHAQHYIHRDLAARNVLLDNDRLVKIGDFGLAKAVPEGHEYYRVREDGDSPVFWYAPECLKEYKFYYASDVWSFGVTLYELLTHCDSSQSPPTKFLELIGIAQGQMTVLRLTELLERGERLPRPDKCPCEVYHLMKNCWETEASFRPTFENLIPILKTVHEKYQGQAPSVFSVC

[7] = Half life in Sprague-Dawley rat at 1 mg/kg, iv; type: ADME, organism-based; design: dose 1 mg/kg, route intravenous; settings: in vivo
Homo sapiens [8] = organism: Homo sapiens; experiment: Inhibition of […] TNF alpha production in human whole blood; type: functional
[9] = molecular target: Mitogen-activated protein kinase 10 (Homo sapiens, UniProt P53779); experiment: Inhibition of JNK3 by HTRF kinase assay
Sequence of Mitogen-activated protein kinase 10 (P53779 whole entry): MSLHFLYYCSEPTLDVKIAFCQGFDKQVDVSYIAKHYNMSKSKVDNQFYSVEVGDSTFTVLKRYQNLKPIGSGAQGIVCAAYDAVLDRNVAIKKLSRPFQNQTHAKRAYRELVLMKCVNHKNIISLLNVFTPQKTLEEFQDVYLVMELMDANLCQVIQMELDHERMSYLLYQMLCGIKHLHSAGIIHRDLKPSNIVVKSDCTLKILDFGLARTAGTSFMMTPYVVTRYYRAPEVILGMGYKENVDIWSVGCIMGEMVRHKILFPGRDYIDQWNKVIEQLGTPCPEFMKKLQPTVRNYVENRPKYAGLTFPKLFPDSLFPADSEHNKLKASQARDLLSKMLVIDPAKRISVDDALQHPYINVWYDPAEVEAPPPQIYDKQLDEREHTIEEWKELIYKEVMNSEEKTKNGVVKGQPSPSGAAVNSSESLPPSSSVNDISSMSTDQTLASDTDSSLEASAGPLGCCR

[10] = molecular target: Mitogen-activated protein kinase 9 (Homo sapiens, UniProt P45984); experiment: Inhibition of JNK2 by HTRF kinase assay
Sequence of Mitogen-activated protein kinase 9 (P45984 whole entry): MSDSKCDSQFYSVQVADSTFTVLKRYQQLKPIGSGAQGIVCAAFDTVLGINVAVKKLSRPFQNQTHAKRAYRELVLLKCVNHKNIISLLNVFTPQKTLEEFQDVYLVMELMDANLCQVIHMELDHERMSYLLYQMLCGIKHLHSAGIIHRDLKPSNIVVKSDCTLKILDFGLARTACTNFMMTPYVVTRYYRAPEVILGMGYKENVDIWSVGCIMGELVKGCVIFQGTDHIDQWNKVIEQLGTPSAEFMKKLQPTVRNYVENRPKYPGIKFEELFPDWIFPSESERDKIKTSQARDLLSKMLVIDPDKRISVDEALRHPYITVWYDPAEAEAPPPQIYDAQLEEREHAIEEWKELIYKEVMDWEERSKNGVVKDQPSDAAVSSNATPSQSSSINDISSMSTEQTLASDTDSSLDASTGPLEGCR

[11] = molecular target: Tyrosine-protein kinase SYK (Homo sapiens, UniProt P43405); experiment: Inhibition of Syk by HTRF kinase assay
[12] = Cmax in Sprague-Dawley rat at 5 mg/kg, po; type: ADME, organism-based; design: dose 5 mg/kg, route oral; settings: in vivo
[13] = molecular target: Mitogen-activated protein kinase 8 (Homo sapiens, UniProt P45983); experiment: Inhibition of JNK1 by HTRF kinase assay
T-cell [14] = experiment: Inhibition of human T cell proliferation by mixed lymphocyte reaction
[15] = molecular target: Ribosomal protein S6 kinase alpha-5 (Homo sapiens, UniProt O75582); experiment: Inhibition of MSK1 by HTRF kinase assay
[16] = molecular target: Tyrosine-protein kinase ZAP-70 (Homo sapiens, UniProt P43403); experiment: Inhibition of Zap70 by HTRF kinase assay
Sequence of Tyrosine-protein kinase ZAP-70 (P43403 whole entry): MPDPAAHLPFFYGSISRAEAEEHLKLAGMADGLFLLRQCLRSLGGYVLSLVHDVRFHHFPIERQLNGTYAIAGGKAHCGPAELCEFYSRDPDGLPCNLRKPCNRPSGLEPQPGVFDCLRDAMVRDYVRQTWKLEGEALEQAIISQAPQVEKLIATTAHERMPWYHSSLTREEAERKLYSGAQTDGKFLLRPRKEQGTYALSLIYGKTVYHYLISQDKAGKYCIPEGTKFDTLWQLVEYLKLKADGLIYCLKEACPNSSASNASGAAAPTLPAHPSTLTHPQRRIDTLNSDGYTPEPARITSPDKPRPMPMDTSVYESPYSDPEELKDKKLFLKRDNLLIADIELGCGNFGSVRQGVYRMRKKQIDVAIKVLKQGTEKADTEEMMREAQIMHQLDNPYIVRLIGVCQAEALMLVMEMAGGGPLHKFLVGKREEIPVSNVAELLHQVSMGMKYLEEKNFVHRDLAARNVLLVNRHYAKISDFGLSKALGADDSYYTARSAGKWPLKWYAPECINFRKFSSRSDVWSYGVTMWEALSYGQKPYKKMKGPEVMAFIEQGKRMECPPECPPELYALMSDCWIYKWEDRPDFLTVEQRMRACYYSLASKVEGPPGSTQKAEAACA

[17] = molecular target: Cyclin-dependent kinase 5 (Homo sapiens, UniProt Q00535); experiment: Inhibition of CDK5 by HTRF kinase assay
[18] = Protein binding in mouse plasma; type: ADME; settings: read-out: PPB (converted)
Homo sapiens [19] = organism: Homo sapiens; experiment: Inhibition of anti CD3-induced IL2 production in human whole blood; type: functional
T-cell [20] = experiment: Inhibition of anti CD3/CD28-induced IL2 secretion in human T cells; type: functional, cell-based
[21] = AUC (0-infinity) in Sprague-Dawley rat at 5 mg/kg, po; type: ADME, organism-based; design: time infinity, dose 5 mg/kg, route oral; settings: plasma
Mus musculus [22] = experiment: Inhibition of anti CD3-induced IL2 production in BALB/c mouse at 10 mg/kg, po relative to control; type: functional
Mus musculus [23] = experiment: Mean terminal plasma concentration in BALB/c mouse at 11 mg/kg, po after […]; type: ADME, organism-based; design: dose 11 mg/kg, route oral
[24] = Volume of distribution in Sprague-Dawley rat at 1 mg/kg, iv; type: ADME, organism-based; design: dose 1 mg/kg, route intravenous; settings: in vivo, read-out: Vss
[25] = molecular target: Tyrosine-protein kinase Lck (Homo sapiens, UniProt P06239)
Description: Inhibition of Lck by HTRF kinase assay

[26] = molecular target: Proto-oncogene tyrosine-protein kinase Src (Homo sapiens, UniProt P12931); experiment: Inhibition of Src by HTRF kinase assay
[27] = molecular target: Mitogen-activated protein kinase 14 (Homo sapiens, UniProt Q16539); experiment: Inhibition of p38-alpha by HTRF kinase assay
Sequence of Mitogen-activated protein kinase 14 (Q16539 whole entry): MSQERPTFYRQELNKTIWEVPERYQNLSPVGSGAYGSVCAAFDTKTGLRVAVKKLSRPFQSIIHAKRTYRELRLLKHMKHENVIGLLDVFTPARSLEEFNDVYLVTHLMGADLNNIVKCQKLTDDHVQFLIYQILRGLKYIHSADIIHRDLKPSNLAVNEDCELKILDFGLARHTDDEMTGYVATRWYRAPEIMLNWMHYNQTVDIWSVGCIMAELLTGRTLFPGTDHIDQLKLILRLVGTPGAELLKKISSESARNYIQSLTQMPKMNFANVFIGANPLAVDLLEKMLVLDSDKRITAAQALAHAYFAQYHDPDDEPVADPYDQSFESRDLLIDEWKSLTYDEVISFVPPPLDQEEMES

[28] = molecular target: Serine/threonine-protein kinase PAK 2 (Homo sapiens, UniProt Q13177); experiment: Inhibition of Pak2 by HTRF kinase assay
Mus musculus [29] = experiment: Inhibition of anti CD3-induced IL2 production in BALB/c mouse at 30 mg/kg, po relative to control; type: functional
[30] = Bioavailability in Sprague-Dawley rat at 5 mg/kg, po; type: ADME, organism-based; settings: in vivo
[31] = molecular target: RAC-alpha serine/threonine-protein kinase (Homo sapiens, UniProt P31749); experiment: Inhibition of PKBalpha by HTRF kinase assay
Sequence of RAC-alpha serine/threonine-protein kinase (P31749 whole entry): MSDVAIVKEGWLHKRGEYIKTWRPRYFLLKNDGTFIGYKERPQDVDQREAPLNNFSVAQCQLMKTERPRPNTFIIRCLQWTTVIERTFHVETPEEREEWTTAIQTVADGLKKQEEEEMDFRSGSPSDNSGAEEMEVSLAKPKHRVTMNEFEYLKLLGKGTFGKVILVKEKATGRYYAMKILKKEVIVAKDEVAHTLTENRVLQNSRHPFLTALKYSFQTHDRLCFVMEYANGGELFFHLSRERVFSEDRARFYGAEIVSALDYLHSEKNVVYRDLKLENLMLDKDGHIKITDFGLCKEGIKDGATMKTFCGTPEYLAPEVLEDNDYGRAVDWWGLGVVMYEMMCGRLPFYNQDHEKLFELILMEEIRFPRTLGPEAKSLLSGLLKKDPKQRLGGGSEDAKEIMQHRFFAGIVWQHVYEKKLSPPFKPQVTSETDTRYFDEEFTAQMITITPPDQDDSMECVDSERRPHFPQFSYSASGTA

Mus musculus [32] = experiment: Inhibition of anti CD3-induced IL2 production in BALB/c mouse at 100 mg/kg, po relative to control; type: functional
[33] = Clearance in Sprague-Dawley rat at 1 mg/kg, iv; type: ADME, organism-based; design: dose 1 mg/kg, route intravenous; settings: in vivo
[34] = Volume of distribution in Sprague-Dawley rat at 2 mg/kg, iv; type: ADME, organism-based; design: dose 2 mg/kg, route intravenous; settings: in vivo, read-out: Vss
[35] = Protein binding in rat plasma; type: ADME, cell-free; settings: read-out: PPB (converted)
[36] = Clearance in Sprague-Dawley rat at 2 mg/kg, iv; type: ADME, organism-based; design: dose 2 mg/kg, route intravenous; settings: in vivo
[37] = molecular target: Vascular endothelial growth factor receptor 2 (Homo sapiens, UniProt P35968); experiment: Inhibition of KDR by HTRF kinase assay
Sequence of Vascular endothelial growth factor receptor 2 (P35968 whole entry): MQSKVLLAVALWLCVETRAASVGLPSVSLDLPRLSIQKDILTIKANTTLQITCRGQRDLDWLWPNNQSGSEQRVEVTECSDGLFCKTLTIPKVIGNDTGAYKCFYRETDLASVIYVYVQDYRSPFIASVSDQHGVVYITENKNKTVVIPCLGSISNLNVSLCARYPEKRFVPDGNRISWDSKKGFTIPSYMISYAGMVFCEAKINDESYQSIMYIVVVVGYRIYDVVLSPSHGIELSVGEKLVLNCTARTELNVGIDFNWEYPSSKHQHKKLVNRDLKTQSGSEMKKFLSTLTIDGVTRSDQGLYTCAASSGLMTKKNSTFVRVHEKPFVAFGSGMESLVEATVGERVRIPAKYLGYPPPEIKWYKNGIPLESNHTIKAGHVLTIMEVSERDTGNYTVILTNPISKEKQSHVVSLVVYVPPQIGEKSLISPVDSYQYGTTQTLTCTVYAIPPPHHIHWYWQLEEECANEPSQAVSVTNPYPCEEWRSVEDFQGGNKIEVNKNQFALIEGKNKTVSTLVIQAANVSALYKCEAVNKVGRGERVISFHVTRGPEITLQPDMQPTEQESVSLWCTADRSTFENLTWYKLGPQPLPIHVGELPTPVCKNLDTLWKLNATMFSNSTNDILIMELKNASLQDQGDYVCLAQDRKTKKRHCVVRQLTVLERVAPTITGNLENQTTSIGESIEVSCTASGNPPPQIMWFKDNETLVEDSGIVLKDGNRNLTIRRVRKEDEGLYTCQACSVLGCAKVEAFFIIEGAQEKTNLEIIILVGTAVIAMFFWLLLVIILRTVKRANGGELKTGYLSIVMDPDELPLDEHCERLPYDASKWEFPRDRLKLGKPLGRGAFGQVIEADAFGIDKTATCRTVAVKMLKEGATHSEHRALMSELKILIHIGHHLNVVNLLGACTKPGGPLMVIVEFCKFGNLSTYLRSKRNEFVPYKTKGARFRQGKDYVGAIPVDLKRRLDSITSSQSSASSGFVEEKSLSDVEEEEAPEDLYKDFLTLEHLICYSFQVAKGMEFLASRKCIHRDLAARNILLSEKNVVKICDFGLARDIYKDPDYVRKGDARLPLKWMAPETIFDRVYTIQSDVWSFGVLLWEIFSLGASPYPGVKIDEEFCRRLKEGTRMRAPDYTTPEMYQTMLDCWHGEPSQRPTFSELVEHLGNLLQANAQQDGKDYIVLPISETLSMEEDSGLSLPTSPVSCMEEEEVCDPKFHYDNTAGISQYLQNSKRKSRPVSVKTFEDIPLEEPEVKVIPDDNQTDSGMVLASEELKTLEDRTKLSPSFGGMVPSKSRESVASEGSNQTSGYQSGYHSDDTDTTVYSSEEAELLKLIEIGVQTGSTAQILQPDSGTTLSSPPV

[38] = Half life in Sprague-Dawley rat at 2 mg/kg, iv; type: ADME, organism-based; design: dose 2 mg/kg, route intravenous; settings: in vivo
Mus musculus [39] = experiment: Mean terminal plasma concentration in BALB/c mouse at 22 mg/kg, po after […]; type: ADME, organism-based; design: dose 22 mg/kg, route oral
[40] = Volume of distribution in Sprague-Dawley rat at 5 mg/kg, iv; type: ADME, organism-based; design: dose 5 mg/kg, route intravenous; settings: in vivo, read-out: Vss
[41] = molecular target: Tyrosine-protein kinase BTK (Homo sapiens, UniProt Q06187); experiment: Inhibition of Btk by HTRF kinase assay
[42] = Cmax in Sprague-Dawley rat at 2 mg/kg, po; type: ADME, organism-based; design: dose 2 mg/kg, route oral; settings: in vivo
[43] = molecular target: cAMP-dependent protein kinase catalytic subunit beta (Homo sapiens, UniProt P22694); experiment: Inhibition of PKAbeta by HTRF kinase assay
[44] = Clearance in Sprague-Dawley rat at 5 mg/kg, iv; type: ADME, organism-based; design: dose 5 mg/kg, route intravenous; settings: in vivo
[45] = Tmax in Sprague-Dawley rat at 2 mg/kg, po; type: ADME, organism-based; design: dose 2 mg/kg, route oral; settings: in vivo
[46] = AUC (0-infinity) in Sprague-Dawley rat at 2 mg/kg, po; type: ADME, organism-based; design: time infinity, dose 2 mg/kg, route oral; settings: plasma
[47] = Half life in Sprague-Dawley rat at 5 mg/kg, iv; type: ADME, organism-based; design: dose 5 mg/kg, route intravenous; settings: in vivo
[48] = Bioavailability in Sprague-Dawley rat at 2 mg/kg, po; type: ADME, organism-based; settings: in vivo

SMILES	pIC50 [2]	Tmax [3]	pIC50 [4]	solubility [5]	pIC50 [6]	Activity (Homo sapiens [8])	pIC50 [9]	pIC50 [10]	pIC50 [11]	Cmax [12]	pIC50 [13]	pIC50 (T-cell [14])	pIC50 [15]	pIC50 [16]	pIC50 [17]	fraction unbound [18]	Activity (Homo sapiens [19])	pIC50 (T-cell [20])	AUC(0-inf) [21]	pIC50 [27]	other results
Cc1ccc(C(=O)Nc2cccc(C(F)(F)F)c2)cc1-c1ccc2nc(NCCN3CCOCC3)ncc2c1	< 4.60	3 h	7.14	159 µg/mL (≈ 297 µM)	5.74	>2.5 µM	6.84	6.76	6.53	128 ng/mL	6.41	7.52	< 4.60	< 4.60	< 4.60	0.029	0.272 µM	7.68	668 ng·h/mL	8.52	pEC50 (Mus musculus [1]): 7.74; half-life [7]: 1.8 h; inhibition in vivo at 10 mg/kg (Mus musculus [22]): 49%; pEC50 (Mus musculus [23]): 6.20; Vd [24]: 5.04 L/kg; pIC50 [25]: 9.70; pIC50 [26]: 8.70; pIC50 [28]: < 4.60; inhibition in vivo at 30 mg/kg (Mus musculus [29]): 84%; bioavailability [30]: 38%; pIC50 [31]: < 4.60; inhibition in vivo at 100 mg/kg (Mus musculus [32]): 91%; clearance [33]: 48 mL/min/kg
Cc1ccc(C(=O)Nc2cccc(C(F)(F)F)c2)cc1-c1ccc2nc(N)ncc2c1		4 h	7.70	27 µg/mL (≈ 63.9 µM)		>10 µM				19 ng/mL		7.06				0.006	0.216 µM	7.06	91 ng·h/mL	8.22	Vd [34]: 1.55 L/kg; fraction unbound [35]: 0.024; clearance [36]: 18.4 mL/min/kg; pIC50 [37]: 8.70; half-life [38]: 2.7 h; bioavailability [30]: 2%
CNc1ncc2cc(-c3cc(C(=O)Nc4cc(C(F)(F)F)ccc4OC4CCN(C)CC4)ccc3C)ccc2n1	< 5.30		6.06		5.56	>2.5 µM	< 5.30	< 4.60	5.95		< 5.00	6.61	< 4.60	< 4.60	< 4.60		0.113 µM	7.44		8.05	pEC50 (Mus musculus [39]): 5.85; Vd [40]: 7.63 L/kg; pIC50 [41]: 5.48; Cmax [42]: 121 ng/mL; pIC50 [43]: < 4.60; clearance [44]: 13.9 mL/min/kg; inhibition in vivo at 10 mg/kg (Mus musculus [22]): -3%; pIC50 [25]: 9.30; Tmax [45]: 6 h; pIC50 [26]: 7.77; AUC(0-inf) [46]: 1370 ng·h/mL; pIC50 [37]: 7.77; half-life [47]: 6.5 h; pIC50 [28]: < 4.60; inhibition in vivo at 30 mg/kg (Mus musculus [29]): 72%; pIC50 [31]: < 4.60; inhibition in vivo at 100 mg/kg (Mus musculus [32]): 96%; bioavailability [48]: 55%
